# Assay results: US11840686B2, “Modulation of prekallikrein (PKK) expression” (Ionis Pharmaceuticals, Inc., priority 2013, dated 2023)
# Strand notation (5' to 3'): a small letter for the sugar, then the base; units joined by * are phosphorothioate-linked, units joined directly phosphodiester-linked; [ ] holds rarer units or linkages, { } end groups; capitals alone tell only the bases. e = 2'-O-(2-methoxyethyl) (MOE); [5mC] = 5-methylcytosine; d = 2'-deoxy (DNA)
# System: human PKK mRNA
# Test: Antisense inhibition of human PKK mRNA in HepaRG cells, 5,000 nM (Example 2)
# Assay type: cell-based
# Conditions: HepaRG cells, 5,000 nM antisense oligonucleotide; 5-10-5 gapmers; Table 16
# Procedure, shortened: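 Percent inhibition of PKK mRNA is reported relative to untreated cells, after adjustment for total RNA by RIBOGREEN. Gapmers of 16–20 nucleosides with 2′-MOE wings were delivered at 5,000 nM by electroporation into HepaRG cells and left for roughly 24 hours before RNA isolation.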
row,Substance,% inhibition [%]
1,547715 (eG*eG*eT*e[5mC]*eA*dG*dA*dA*dG*dG*d[5mC]*d[5mC]*dT*d[5mC]*dT*eT*eA*eT*eT*e[5mC]; antisense) [compound 547715],21
2,546943 (e[5mC]*eA*eG*eT*eT*dT*dG*dG*d[5mC]*d[5mC]*dT*dT*dT*d[5mC]*d[5mC]*eA*eT*e[5mC]*eT*e[5mC]; antisense) [compound 546943],54
3,546964 (eG*e[5mC]*eG*eA*eT*dT*d[5mC]*d[5mC]*dT*dT*dG*d[5mC]*d[5mC]*dT*d[5mC]*eT*eG*e[5mC]*eT*eG; antisense) [compound 546964],53
4,546970 (eG*e[5mC]*e[5mC]*e[5mC]*eA*dA*dG*d[5mC]*d[5mC]*dT*dA*d[5mC]*dA*dT*dG*e[5mC]*eA*eT*eA*e[5mC]; antisense) [compound 546970],61

# Same assay, conditions: HepaRG cells, 5,000 nM antisense oligonucleotide; 5-10-5 gapmers; Table 17
row,Substance,% inhibition [%]
1,547725 (eA*eT*eT*eG*eG*dT*dG*dG*dT*dG*dG*dG*dA*dT*dT*eG*eG*eT*eG*eG; antisense) [compound 547725],26
2,547752 (eG*eT*eG*eG*eT*dT*dG*dG*dT*dG*dG*d[5mC]*dG*dG*dG*eA*eT*e[5mC]*eG*eG; antisense) [compound 547752],41
3,547726 (eG*e[5mC]*eA*eG*eG*dA*dT*dT*dG*dG*dT*dG*dG*dT*dG*eG*eA*eA*eT*eT; antisense) [compound 547726],0
4,546999 (eG*e[5mC]*eA*eG*e[5mC]*dT*d[5mC]*dA*d[5mC]*dA*d[5mC]*d[5mC]*d[5mC]*dA*dA*eA*eA*eA*eG*e[5mC]; antisense) [compound 546999],29

# Same assay, conditions: HepaRG cells, electroporation with 5,000 nM antisense oligonucleotide, approximately 24 hours, PKK mRNA by RT-PCR (RTS3454), relative to untreated control cells; Table 5 experiment
row,Substance,% inhibition [%]
1,547287 (antisense eG*eT*e[5mC]*eA*eG*dA*d[5mC]*dA*dT*d[5mC]*d[5mC]*dA*d[5mC]*dA*dG*eG*eA*eA*eA*e[5mC]) [compound 547287],69
2,547271 (eT*eT*eA*eA*eA*dA*dA*dT*dG*dA*dA*d[5mC]*dG*dG*dT*e[5mC]*eT*eT*e[5mC]*eA; antisense) [compound 547271],60

# Same assay, conditions: HepaRG cells, electroporation with 5,000 nM antisense oligonucleotide, approximately 24 hours, PKK mRNA by RT-PCR (RTS3454), relative to untreated control cells; Table 6 experiment
row,Substance,% inhibition [%]
1,547350 (antisense eG*eG*e[5mC]*eA*eT*dT*d[5mC]*dT*dT*d[5mC]*dA*dA*d[5mC]*dA*d[5mC]*eT*eG*e[5mC]*eT*eA) [compound 547350],96
2,546212 (antisense eA*eG*eA*eT*eG*d[5mC]*dT*dG*dG*dA*dA*dG*dA*dT*dG*eT*eT*e[5mC]*eA*eT) [compound 546212],48
3,547344 (antisense eG*eA*e[5mC]*eA*e[5mC]*dA*dT*dT*dA*dA*dA*dA*dT*dT*dG*eA*e[5mC]*eT*e[5mC]*e[5mC]) [compound 547344],80
4,546177 (antisense eT*eG*eT*e[5mC]*e[5mC]*dA*dG*dA*dA*dA*d[5mC]*dT*dG*d[5mC]*dA*e[5mC]*e[5mC]*eT*eG*eT) [compound 546177],75
5,546183 (antisense e[5mC]*eA*e[5mC]*eT*eT*dA*dT*dT*dT*dG*dA*dT*dG*dA*d[5mC]*e[5mC]*eA*e[5mC]*eA*eT) [compound 546183],69

# Same assay, conditions: HepaRG cells, electroporation, 5,000 nM antisense oligonucleotide, approx. 24 hours, primer probe set RTS3454, relative to untreated control cells; Table 11
row,Substance,% inhibition [%]
1,547512 (antisense eG*e[5mC]*eA*eG*eA*dT*dG*dA*dG*dG*dA*d[5mC]*d[5mC]*d[5mC]*d[5mC]*e[5mC]*e[5mC]*eA*eG*eG) [compound 547512],74
2,547502 (antisense eT*e[5mC]*eA*eG*eG*dT*dT*dG*dT*dA*dA*dA*dA*dA*dT*eT*eG*e[5mC]*e[5mC]*eT) [compound 547502],64
3,547513 (antisense eT*eG*e[5mC]*eA*eG*dA*dT*dG*dA*dG*dG*dA*d[5mC]*d[5mC]*d[5mC]*e[5mC]*e[5mC]*e[5mC]*eA*eG) [compound 547513],72

# Same assay, conditions: Table 7; HepaRG cells, electroporation with 5,000 nM antisense oligonucleotide, approx. 24 hours; PKK mRNA by RT-PCR (RTS3454), relative to untreated control cells
row,Substance,% inhibition [%]
1,546242 (eG*eG*eG*eT*eT*d[5mC]*dA*dG*dG*dT*dA*dA*dA*dG*dT*eT*e[5mC]*eT*eT*eT; antisense) [compound 546242],8
2,547380 (eT*eG*eA*e[5mC]*eT*d[5mC]*dG*dA*dT*dT*dT*dT*d[5mC]*d[5mC]*dA*eT*eA*e[5mC]*eA*eT; antisense) [compound 547380],42

# Same assay, conditions: Table 8; HepaRG cells, electroporation with 5,000 nM antisense oligonucleotide, approx. 24 hours; PKK mRNA by RT-PCR (RTS3454), relative to untreated control cells
row,Substance,% inhibition [%]
1,547417 (eT*e[5mC]*e[5mC]*eT*eT*dA*d[5mC]*dA*dG*dT*d[5mC]*dT*dT*d[5mC]*dT*eG*eG*eG*eA*eG; antisense) [compound 547417],68

# Same assay, conditions: Table 9 experiment; HepaRG cells, 20,000 cells per well, electroporation with 5,000 nM antisense oligonucleotide, approx. 24 hours; PKK mRNA by RT-PCR (RTS3454), relative to untreated control cells
row,Substance,% inhibition [%]
1,547478 (antisense e[5mC]*eA*eT*eT*e[5mC]*dT*dT*d[5mC]*dA*dT*dT*dT*dG*dT*dT*eA*e[5mC]*e[5mC]*eA*eA) [compound 547478],85
2,546330 (antisense eT*eT*eT*e[5mC]*eT*d[5mC]*d[5mC]*dT*dT*d[5mC]*dG*dA*dG*dA*dA*eG*e[5mC]*e[5mC]*e[5mC]*e[5mC]) [compound 546330],55
3,547485 (antisense e[5mC]*eA*eA*eA*e[5mC]*dT*dA*dA*dG*dG*dG*dA*d[5mC]*d[5mC]*dA*e[5mC]*e[5mC]*eT*eG*eA) [compound 547485],49
4,547488 (antisense eA*e[5mC]*eA*e[5mC]*e[5mC]*dA*dG*dG*dT*dT*dG*d[5mC]*dT*d[5mC]*d[5mC]*e[5mC]*eT*eG*e[5mC]*eG) [compound 547488],71
5,546326 (antisense e[5mC]*e[5mC]*e[5mC]*eA*eA*d[5mC]*dA*dG*dT*dT*dG*dG*dT*dA*dT*eA*eA*eA*eT*eT) [compound 546326],62
6,547449 (antisense eT*eT*eT*eT*eA*dT*dT*dT*dG*dT*dG*dA*dG*dA*dA*eA*eG*eG*eT*eG) [compound 547449],71

# Same assay, conditions: Table 10 experiment; HepaRG cells, 20,000 cells per well, electroporation with 5,000 nM antisense oligonucleotide, approx. 24 hours; PKK mRNA by RT-PCR (RTS3454), relative to untreated control cells
row,Substance,% inhibition [%]
1,547478 (antisense e[5mC]*eA*eT*eT*e[5mC]*dT*dT*d[5mC]*dA*dT*dT*dT*dG*dT*dT*eA*e[5mC]*e[5mC]*eA*eA) [compound 547478],55
2,546330 (antisense eT*eT*eT*e[5mC]*eT*d[5mC]*d[5mC]*dT*dT*d[5mC]*dG*dA*dG*dA*dA*eG*e[5mC]*e[5mC]*e[5mC]*e[5mC]) [compound 546330],67
3,547485 (antisense e[5mC]*eA*eA*eA*e[5mC]*dT*dA*dA*dG*dG*dG*dA*d[5mC]*d[5mC]*dA*e[5mC]*e[5mC]*eT*eG*eA) [compound 547485],66
4,547488 (antisense eA*e[5mC]*eA*e[5mC]*e[5mC]*dA*dG*dG*dT*dT*dG*d[5mC]*dT*d[5mC]*d[5mC]*e[5mC]*eT*eG*e[5mC]*eG) [compound 547488],72
5,546326 (antisense e[5mC]*e[5mC]*e[5mC]*eA*eA*d[5mC]*dA*dG*dT*dT*dG*dG*dT*dA*dT*eA*eA*eA*eT*eT) [compound 546326],64
6,547449 (antisense eT*eT*eT*eT*eA*dT*dT*dT*dG*dT*dG*dA*dG*dA*dA*eA*eG*eG*eT*eG) [compound 547449],73

# Same assay, conditions: Table 13; human PKK mRNA in HepaRG cells; 5-10-5 gapmers
row,Substance,% inhibition [%]
1,546770 (eG*eT*eG*eG*eA*d[5mC]*dG*dA*d[5mC]*dT*dG*d[5mC]*d[5mC]*d[5mC]*dT*eG*eT*eG*e[5mC]*e[5mC]; antisense) [compound 546770],74
2,546791 (eG*eA*eT*eG*e[5mC]*dA*dT*dG*d[5mC]*dA*dG*d[5mC]*dA*dA*dT*eA*e[5mC]*eA*eG*eG; antisense) [compound 546791],52
3,546763 (eG*e[5mC]*eT*eT*e[5mC]*d[5mC]*d[5mC]*d[5mC]*dA*dA*dT*dA*d[5mC]*dT*dT*eG*e[5mC]*eT*eG*eG; antisense) [compound 546763],84

# Same assay, conditions: human PKK mRNA in HepaRG cells; 5-10-5 gapmers; Table 14
row,Substance,% inhibition [%]
1,547612 (antisense e[5mC]*e[5mC]*eT*eG*eT*dA*dA*d[5mC]*dA*dG*dT*dA*dT*d[5mC]*dA*e[5mC]*eT*eG*eT*eA) [compound 547612],68
2,546868 (eT*eA*e[5mC]*e[5mC]*eT*dA*dT*dA*dA*d[5mC]*dT*d[5mC]*dT*dA*dA*e[5mC]*eA*eG*eT*eA; antisense) [compound 546868],51
3,547613 (antisense e[5mC]*eT*eA*eT*eA*dT*d[5mC]*dA*d[5mC]*dT*dG*dT*dA*d[5mC]*d[5mC]*eT*eG*eT*eA*eA) [compound 547613],39

# Same assay, conditions: human PKK mRNA, HepaRG cells, 5,000 nM antisense oligonucleotide, Table 18
row,Substance,% inhibition [%]
1,548768 (antisense eG*eT*eA*eT*d[5mC]*dA*d[5mC]*dT*dG*dT*d[5mC]*d[5mC]*dT*eA*eT*eA*eT) [compound 548768],56
2,548765 (antisense eA*eT*eA*eT*d[5mC]*dA*d[5mC]*dT*dG*dT*d[5mC]*d[5mC]*dT*eA*eT*eA*eA) [compound 548765],0
3,548777 (antisense eG*eT*eA*eA*d[5mC]*dA*dG*dT*dA*dT*d[5mC]*dA*d[5mC]*eT*eG*eT*eA) [compound 548777],41

# Same assay, conditions: human PKK mRNA, HepaRG cells; 5-10-5 motif oligonucleotides targeting SEQ ID NO: 1 and 10
row,Substance,% inhibition [%]
1,547672 (e[5mC]*eA*eA*eT*eA*dT*d[5mC]*dA*d[5mC]*dT*dG*dT*d[5mC]*d[5mC]*dT*eA*e[5mC]*eA*eA*e[5mC]; antisense) [compound 547672],36
2,546909 (eA*eA*e[5mC]*eA*eA*dT*dA*dT*d[5mC]*dA*d[5mC]*dT*dG*dT*dA*e[5mC]*e[5mC]*eT*eT*eT; antisense) [compound 546909],44
3,547644 (eT*eA*eT*e[5mC]*eA*d[5mC]*dT*dG*dT*d[5mC]*d[5mC]*dT*dA*dT*dA*eA*e[5mC]*eT*eA*eT; antisense) [compound 547644],51
4,547657 (eA*e[5mC]*eA*eA*eT*dA*dT*d[5mC]*dA*d[5mC]*dT*dG*dT*d[5mC]*d[5mC]*eT*eA*eT*eA*eA; antisense) [compound 547657],43
5,546902 (e[5mC]*eA*e[5mC]*eT*eG*dT*d[5mC]*d[5mC]*dT*dA*dT*dA*dA*d[5mC]*dT*eA*eT*eA*eA*e[5mC]; antisense) [compound 546902],71
